Source: patent US20150004110A1, “NOVEL ANTI-AGING AND DEPIGMENTING COSMETIC COMPOSITIONS” (DIVERCHIM, priority 2011, published 2015)

Key:
collagen IV = experiment: Staining and immunolabelling of skin explant sections: collagen IV; type: cell-based, human; conditions: treated skin explant sections
Method: 1. Preparation of the explants • During abdominoplasty of a person, 45 skin explants were prepared. The explants were put in BEM medium (BIO-EC's Explants Medium) for survival at 37° C. in humid atmosphere, enriched with 5% CO2.
2. Application of the products • The solutions are prepared in DMSO from pure products, in order to obtain final concentrations of […] by incorporating an identical volume of 10 μl in each well and for each treatment. The treatment was carried out in the survival medium on days 0, 1, 2, 5 and 7.
3. Taking samples • On D0, the 3 explants of batch TO were taken and each explant was cut in two. One part was fixed in buffered formol for observation of the general morphology. The other was frozen and stored at −80° C. • On D5 and D9, 3 explants from each batch were taken and treated in the same way.
4. Histological treatment • After fixation for 48 hours in buffered formol, the samples were dehydrated and embedded in paraffin using a Leica 1020 automatic dehydrator. They were embedded according to procedure MO-H-153 using a Leica EG 1160 coating station. Sections of 5 μm were prepared according to procedure MO-H-173 using a Minot-type microtome, Leica RM 2125 and mounted on Superfrost® histological glass slides.
6. Staining and immunolabelling
Immunolabelling will be carried out on sections with the appropriate antibody. […]

filaggrin = experiment: In situ immunolabelling of filaggrin in keratinocytes; type: cell-based; conditions: normal human epidermal keratinocytes
Description: Transglutaminase K, TGK, and filaggrin are two protein markers of epidermal differentiation involved in arrangement of the keratin filaments and formation of the envelope of the stratum corneum.

PPARγ (h) [1] = target: T1, PPARγ (h) (Homo sapiens, UniProt P37231); experiment: PPARγ competitive radioligand binding assay (Cerep)
T1 construct: Cerep (contract laboratory that ran the assay)
T1 sequence (P37231 1-505): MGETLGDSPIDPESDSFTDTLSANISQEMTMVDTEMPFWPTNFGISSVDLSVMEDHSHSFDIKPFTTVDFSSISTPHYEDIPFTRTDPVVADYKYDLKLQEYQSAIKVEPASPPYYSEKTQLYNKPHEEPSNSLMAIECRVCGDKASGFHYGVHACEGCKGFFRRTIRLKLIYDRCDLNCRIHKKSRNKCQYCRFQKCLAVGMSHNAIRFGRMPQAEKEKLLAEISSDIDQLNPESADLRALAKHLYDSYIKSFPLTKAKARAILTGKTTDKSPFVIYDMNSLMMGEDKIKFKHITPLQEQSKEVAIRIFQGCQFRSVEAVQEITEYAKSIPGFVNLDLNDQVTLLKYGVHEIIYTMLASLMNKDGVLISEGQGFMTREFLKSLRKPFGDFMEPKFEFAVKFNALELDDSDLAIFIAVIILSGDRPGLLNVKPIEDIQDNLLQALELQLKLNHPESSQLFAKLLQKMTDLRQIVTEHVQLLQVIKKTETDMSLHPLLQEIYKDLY
Method: The affinity of compound 1 for the PPAR receptors (α and γ) was tested by in vitro binding assays (tests carried out by the company Cerep).
This is a nuclear receptor competitive binding assay, between a radiolabelled ligand and the test molecule (here compound 1).
The principle of the technique consists of measuring the displacement of the radioactive ligand bound to the receptor by the test molecule. • Material and Methods
The specific binding of the ligand is defined by the difference between total binding and non-specific binding determined in the presence of an excess of unlabelled ligand.
The results are expressed as: • percentage of control specific binding ((measured specific binding/control specific binding)×100)) • percentage of inhibition of control specific binding ((100−(measured specific binding/control specific binding)) obtained in the presence of compound 1.
The values of IC50 (concentration at which the maximum control specific binding is inhibited by 50%), and the Hill coefficient (nH) are determined by non-linear regression analysis of the curves of competition with a mean replicated value using adjustment of Hill's equation
The inhibition constant (Ki) was calculated using the Cheng-Prusoff equation

PPARδ (h) [2] = target: T2, PPARδ (h) (Homo sapiens, UniProt Q03181); experiment: PPARδ agonist effect, coactivator Alpha screen; type: biochemical
T2 sequence (Q03181 1-441): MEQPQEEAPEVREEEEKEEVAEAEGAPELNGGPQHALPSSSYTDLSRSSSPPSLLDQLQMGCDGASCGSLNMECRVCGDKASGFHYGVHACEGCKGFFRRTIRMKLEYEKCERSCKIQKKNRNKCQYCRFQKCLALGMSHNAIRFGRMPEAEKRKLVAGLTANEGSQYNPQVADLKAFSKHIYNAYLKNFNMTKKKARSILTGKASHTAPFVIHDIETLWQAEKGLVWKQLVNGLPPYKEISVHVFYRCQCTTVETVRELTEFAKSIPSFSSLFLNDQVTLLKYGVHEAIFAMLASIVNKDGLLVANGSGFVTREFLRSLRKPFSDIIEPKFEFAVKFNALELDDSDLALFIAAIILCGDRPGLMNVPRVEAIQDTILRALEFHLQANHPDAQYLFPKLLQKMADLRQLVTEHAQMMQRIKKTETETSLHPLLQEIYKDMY
Method: (§1) The agonist or antagonist activity of compound 1 on the PPAR receptors was tested by fluorescence techniques. • Material and Methods
(§2) The results are expressed as: • percentage of control specific agonist response (measured specific response/control specific agonist response)×100) and • percentage inhibition of the control specific agonist response (100−((measured specific response)/control specific agonist response)×100)) obtained in the presence of compound 1.
(§3) The EC50 values (concentration at which the maximum specific response is 50%) and the IC50 values (concentration at which the maximum control specific agonist response is inhibited by 50%) are determined by non-linear regression analysis of the concentration-response curves with a mean replicated value using adjustment of Hill's equation

PPARγ (h) [3] = target: T1, PPARγ (h); experiment: PPARγ agonist effect, coactivator Alpha screen; type: biochemical
Method: as §1, §2, §3

PPARδ (h) [4] = target: T2, PPARδ (h); experiment: PPARδ antagonist effect, coactivator Alpha screen; type: biochemical
Method: as §1, §2, §3
(§4) For the antagonists, the apparent dissociation constants (KB) were calculated using the modified Cheng-Prusoff equation

PPARγ (h) [5] = target: T1, PPARγ (h); experiment: PPARγ antagonist effect, coactivator Alpha screen; type: biochemical
Method: as §1, §2, §3, §4

[6] = 10^−5 M, read-out: % Inhibition of control agonist response
[7] = 10^−6 M, read-out: % Inhibition of control agonist response
[8] = 10^−7 M, read-out: % Inhibition of control agonist response

## Oc1ccccc1CCOc1ccc(F)cc1 [Compound 1, 2-[2-(4-fluoro-phenoxy)-ethyl]-phenol]
Collagen IV
  Collagen IV along the dermal-epidermal junction: clear overexpression
filaggrin
  Protein expression of filaggrin: concentration-dependent stimulation of protein expression
PPARγ (h) [1]; 10^−5 M
  Interpretation of the 49% inhibition of PPARγ specific binding: slight to moderate effect
PPARγ (h) [1]; 10^−5 M, agonist radioligand, read-out: % Inhibition of control specific binding
  inhibition at 10 µM: 49%
PPARγ (h) [1]; 10^−6 M, agonist radioligand, read-out: % Inhibition of control specific binding
  inhibition at 1 µM: 1%
PPARγ (h) [1]; 10^−7 M, agonist radioligand, read-out: % Inhibition of control specific binding
  inhibition at 0.1 µM: 0%
PPARγ (h) [1]; 10^−7 to 10^−5 M
  Activity with respect to the PPARγ receptor (binding, conclusion in words): no activity
PPARδ (h) [2]; 10^−5 M
  % Control agonist response: 2%
PPARδ (h) [2]; 10^−6 M
  % Control agonist response: 4%
PPARδ (h) [2]; 10^−7 M
  % Control agonist response: 2%
PPARδ (h) [2]; 10^−7 to 10^−5 M
  PPARδ agonist activity (conclusion in words): not an agonist
PPARγ (h) [3]; 10^−5 M
  % Control agonist response: 0%
PPARγ (h) [3]; 10^−6 M
  % Control agonist response: 0%
PPARγ (h) [3]; 10^−7 M
  % Control agonist response: 0%
PPARγ (h) [3]; 10^−7 to 10^−5 M
  PPARγ agonist activity (conclusion in words): not an agonist
PPARδ (h) [4]; [6]
  inhibition at 10 µM: -5%
PPARδ (h) [4]; [7]
  inhibition at 1 µM: -2%
PPARδ (h) [4]; [8]
  inhibition at 0.1 µM: 0%
PPARδ (h) [4]; 10^−7 to 10^−5 M
  PPARδ antagonist activity (conclusion in words): not an antagonist
PPARγ (h) [5]; [6]
  inhibition at 10 µM: 0%
PPARγ (h) [5]; [7]
  inhibition at 1 µM: 0%
PPARγ (h) [5]; [8]
  inhibition at 0.1 µM: 3%
PPARγ (h) [5]; 10^−7 to 10^−5 M
  PPARγ antagonist activity (conclusion in words): not an antagonist
